According to ChEMBL document CHEMBL1201862, “PubChem BioAssay data set” (2004):
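Tested at 5 concentrations; 48 h exposure; 96-well plates; endpoints linearly interpolated, else capped at highest concentration. GI50 = concentration required for 50% inhibition of growth.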 Active and inactive are the calls of the source. Cut-off read from the data, not from the text of the source: active = GI50 up to about 1.1 µM and inactive = higher.

Columns and labels:
Test in all cases: inhibition of tumour cell growth, NCI panel, 48 h
BT-549 = system: BT-549
DLD-1 = system: DLD-1
DMS-114 = system: DMS-114
HOP-18 = system: HOP-18
LXFL 529 = system: LXFL 529
M19-MEL = system: M19-MEL
SNB-78 = system: SNB-78
XF498 = system: XF498

Structure (SMILES) | GI50 (BT-549) | GI50 (DLD-1) | GI50 (DMS-114) | GI50 (HOP-18) | GI50 (LXFL 529) | GI50 (M19-MEL) | GI50 (SNB-78) | GI50 (XF498)
Cn1ccc(C(=O)NCCOCCNC(=O)c2ccn(C)c(=O)c2O)c(O)c1=O | > 100 µM (inactive) |  |  |  |  |  |  | 
C/N=c1\ss/c(=N\C(=S)N(C)C)n1-c1ccccc1 |  | > 100 µM (inactive) | > 67.8 µM (inactive) | > 100 µM (inactive) | > 100 µM (inactive) | > 100 µM (inactive) | 46 µM (inactive) | 
CC(C)Cc1ccc(C(C)C(=O)N2CCN(/C=C/c3ccccc3)CC2)cc1 (stereo unspecified) |  | 13.7 µM (inactive) | 10.8 µM (inactive) | 21.5 µM (inactive) |  | 15.7 µM (inactive) | 25.1 µM (inactive) | 13.8 µM (inactive)
CC(=O)C(CN(C)C)C(c1ccccc1)c1c(O)c2ccccc2oc1=O (stereo unspecified) |  | > 100 µM (inactive) | 93.3 µM (inactive) | > 100 µM (inactive) | > 100 µM (inactive) | > 100 µM (inactive) | > 100 µM (inactive) | > 100 µM (inactive)
CC(C)(O)/C1=C/C=C/CCCCCCCCCC1 | > 100 µM (inactive) |  |  |  |  |  |  | 
Nc1ccc(S(=O)(=O)C23CC4CC(CC(C4)C2)C3)cc1 | > 100 µM (inactive) |  |  |  |  |  |  | 
N#Cc1c(NC(=O)C(F)(F)F)sc2c3c(=O)c4ccccc4c(=O)c=3oc3ccccc3c12 | 19.6 µM (inactive) |  |  |  |  |  |  | 
CC12CCC(C(=O)N3CC=CCC3)(OC1=O)C2(C)C (stereo unspecified) |  | > 100 µM (inactive) | > 100 µM (inactive) | > 100 µM (inactive) |  | > 100 µM (inactive) | > 100 µM (inactive) | > 100 µM (inactive)
O=C(N/N=C\c1ccc2ccccc2c1)Nc1ccc([N+](=O)[O-])cc1 | 24.3 µM (inactive) |  |  |  |  |  |  | 
CC(=O)OCCOCNC(=S)N/N=C(\C)c1cnc2ccccc2n1 |  | 26.2 µM (inactive) | 15.6 µM (inactive) | > 100 µM (inactive) | 30.8 µM (inactive) | 15.8 µM (inactive) | > 100 µM (inactive) | > 100 µM (inactive)
Cc1nc2ccccc2n1Cc1ccc(NC(=S)Nc2ccccc2)cc1 | 61.1 µM (inactive) |  |  |  |  |  |  | 
COC(=O)C(Cc1c[nH]c2ccccc12)NC1=Nc2ccncc2S(=O)(=O)N1c1ccccc1 (stereo unspecified) | 35 µM (inactive) |  |  |  |  |  |  | 
CC[C@@H](C)[C@H](NC(=O)[C@H](Cc1ccccc1)NCC(F)(F)F)C(=O)OC(C)(C)C | > 100 µM (inactive) |  |  |  |  |  |  | 
O=C1COCCN1C(=O)c1ccccc1Cl | > 100 µM (inactive) |  |  |  |  |  |  | 
